Laboratory results as given in patent US20230088286A1, “USP7 INHIBITOR FOR USE IN THE TREATMENT OF CANCER” (ALMAC DISCOVERY LIMITED, priority 2020, published 2023).
Entries after “also recorded” stand apart in the source; their conditions may differ.

Columns and labels:
[1] = system: primary human dermal fibroblasts (HDF) co-cultured with stimulated PBMCs, with or without cancer cells (HT29 or H1299); conditions: inhibitor concentration of 300 nM, 48 hours
Experimental: Biomarker changes relative to the vehicle control-treated systems are presented as log-transformed ratio.
BioMAP systems were employed using primary human cells. […] Human neonatal foreskin fibroblasts (HDFn) from 3 donors were pooled and cultured according to the supplier's (Lonza, Inc., Allendale, N.J.) recommendation. Peripheral blood mononuclear cells (PBMC) were prepared from buffy coats from normal human donors according to standard methods. Autoimmune HDFSAg system consisted of primary human dermal fibroblasts (HDF) co-cultured with PBMCs stimulated with T-cell receptor (SAg) to model chronic T cell activation and inflammation. Stromal Oncology Colorectal Cancer and Non-Small Cell Lung Cancer (NSCLC) panels were composed of cancer cells (HT29 or H1299), HDF and PBMCs stimulated with SAg. This model captures the interactions between tumour cells, stimulated immune cells and the host stromal network. […] Afterwards, biomarkers were measured in supernatants from co-cultures using ELISA as following: MCP-1, VCAM-1, Collagen I, IP-10, MMP-1, sIL-10, sIL-17A, sIL-17F, sIL-2, sIL-6, SRB, sTGFb, sTNFa, sVEGF, IL-8, MIG, MCSF, uPAR, Col-III, IP-10, EGFR, HGF, Pal-1, PBMC Cytotoxicity, tPA, uPA, sGranzyme, sPGE2, slFg, Sil-13, sMDC, Collagen III, MMP-9, TIMP-2, CEACAM5, Keratin 20. Biomarker levels are presented as log-transformed ratio

[2] = system: CT-26 tumours; experiment: Flow cytometry of tumour infiltrating immune cells, CT-26 model (AD-04); assay type: in vivo, mouse; conditions: dosed 10 days
Experimental: FIG. 32: USP7 inhibition modulates the tumour microenvironment immune compartment. […] Flow cytometry analysis of tumour infiltrating immune cells in the CT-26 syngeneic model dosed with the USP7 inhibitor for 10 days.
Harvested tumours were collected in HBSS medium, minced and incubated 30 minutes at 37° C. in non-enzymatic cell dissociation buffer followed by mechanical dissociation through a 70 μm filter. Viable cells were then enriched using Ficoll® gradient. All cells suspensions were count and one million viable cells were seeded in 96-well plates in 100 μL of Staining Buffer for acquisition. Non-specific binding was performed using mouse FcR blocking reagent. Viobility 405/452 Fixable Dye (Miltenyi Biotec) was used to assess cell viability. The antibodies directed against the CD45, CD335 (Nkp46), FoxP3 CD8a, CD4, CD3e, CD19, F4/80, CD11c, CD11 b (Miltenyi Biotec), Ly6G and Ly6C (Biolegend) were added. The stained cells were analyzed with a Fortessa X20 cytometer (BD Biosciences).

[3] = system: CT-26 cells in BALB/C mice; experiment: CT-26 syngeneic tumour model (AD-04 study)
Experimental: FIG. 30: Effect of USP7 on the tumour microenvironment in vivo.
For subcutaneous tumour implantation, CT26 cells were injected subcutaneously (1×10^6cells in 200 μL of RPMI) in the right flank of 8- to 10-week-old BALB/c female mice. […] Tumour volume (in mm^3) was measured twice a week with a digital caliper and calculated by the following formula: volume=(width)^2×length/2. Body weight was measured twice a week. […]

[4] = system: primary fibroblast, immortalised fibroblast, endothelial cells and cancer cells; experiment: Proliferation by live cell time-lapse imaging; assay type: cell-based, human; conditions: fibroblasts or endothelial cells
Experimental: During a proliferation assay, pictures were taken every 2 hours using a time-lapse microscope. Charts were used to display cell confluency over time.
To examine the effect of USP7 inhibition on proliferation of primary fibroblast, immortalised fibroblast, endothelial cells and cancer cells, live cell time-lapse imaging was used.

[5] = system: immortalized lung fibroblasts (WI38-VA13); experiment: sVEGF ELISA in immortalized fibroblasts; assay type: cell-based, human; conditions: SV-40 immortalized, destabilized p53
Experimental: FIG. 7: USP7 inhibition-mediated decrease in VEGF secretion is dependent on a functional p53 pathway.
For the co-culture experiments, 5×10^4 cancer cells were seeded in transwell in 0.5 mL complete growth medium and placed on the top of 0.1×10^6 fibroblasts plated in 12-well in 1 mL low serum growth media overnight. Following day cancer cells were washed with PBS and media replaced with reduced (1%) serum growth media. 0.5×10^6 PBMC were plated on top of fibroblasts, incubated for 45 min and activated with CD3 (1 μg/ml final concentration) and CD28 (5 μg/ml final concentration). […] Monoculture experiments, 0.1×10^6 cells were seeded in 12-well in 1 mL of complete growth media (cancer cells) or low serum growth media (fibroblasts) and incubated overnight. […] Afterwards, cell culture media was collected, cell debris were removed by centrifugation the concentration of VEGF in the cell culture supernatants was measured using the human/mouse VEGF immunoassay Quantikine ELISA kit (R&D systems, Minneapolis, Minn., USA) according to the manufacturer's instructions. For the intracellular VEGF detection, total protein concentration was determined by BCA (Pierce Chemical, USA) and VEGF levels determined using the same kit described above.

[6] = system: MMP-7; experiment: MMP-7 in supernatants of HDF invasion assay (Luminex); assay type: cell-based, human; conditions: invading HDF, 96 hours
Experimental: The scratch wound cell invasion assay was used to measure the ability of primary human fibroblasts to invade through Matrigel® basement membrane. Cell culture supernatants from invasion assay were collected after 96 hours and MMP-7 levels were measured using Luminex®.
To further explore whether USP7 inhibition modulates MMP levels in invading fibroblasts, cell culture supernatants from HDF invasion assay were collected and presence of various MMP was detected using Luminex® Multiplex assay.
Concentrations of MMP2 and MMP7 were determined in cell culture supernatants in triplicates using Luminex human cytokine/chemokine multiplex kits (Millipore, St. Charles, Mo., USA) according to the manufacturer's protocol.

[7] = system: RS4; 11; experiment: RS4;11 cell EC50; assay type: cell-based; conditions: Homo sapiens
[8] = system: LNCaP; experiment: LNCaP cell EC50; assay type: cell-based; conditions: Homo sapiens
[9] = molecular target: 2C19 (Homo sapiens, UniProt P33261); experiment: Cyp inhibition 2C19; assay type: in vitro ADME; conditions: read-out: Cyps: 2C19
[10] = Hep CLhep (r); assay type: in vitro ADME, rat
[11] = Hep CLhep (m); assay type: in vitro ADME, mouse
[12] = system: CT-26 tumours; experiment: Histology and immunofluorescence of CT-26 tumours (ADC-159); assay type: in vivo, mouse
Experimental: FIG. 36: ADC-159 prevents tumour vessel maturation in CT-26 syngeneic mouse model in vivo. FFPE tumour blocks were prepared after 15 days of treatment with vehicle and ADC-159 and co-stained with endothelial cell marker CD31 (green), pericyte marker NG2 (red) and DAPI (blue; n=5 blocks/group). Mature blood vessels have fine branching positive for CD31 and NG2 staining (A, left image) which is lost when treated with USP7 inhibitor (B, right image).
FIG. 37: ADC-159 decreases tumour area and increases necrosis area in the CT-26 syngeneic mouse model in vivo. […] FFPE tumour blocks were prepared followed by quantification of tumour and necrosis using HALO software.
After rinsing with running water, the specimens were transferred to the Vacuum Tissue Processor (HistoCore PEARL, Leica) for dehydration, then embedded into FFPE blocks using Tissue embedding center (EG1150, Leica). FFPE blocks were sectioned with a manual rotary microtome (RM2235, Leica), 4 μm thickness/section. Sections were processed for staining with hematoxylin and eosin (H&E) or for immunofluorescent (IF) analysis. For IF sections were stained with primary antibodies specific for CD31 (abcam), NG2 (sigma) and cell nuclei were counterstained with DAPI. All stained sections were scanned with Pannoramic Digital Slide Scanners for 40× magnification (3[…], Pannoram ic SCAN). All the images were analyzed with HALOTM platform were tumour area and large areas of necrosis were quantified. Non-tumour tissue on the periphery was excluded.

[13] = LogD7.4; assay type: physicochemical; conditions: pH 7.4

Sequence of 2C19 (P33261 whole entry): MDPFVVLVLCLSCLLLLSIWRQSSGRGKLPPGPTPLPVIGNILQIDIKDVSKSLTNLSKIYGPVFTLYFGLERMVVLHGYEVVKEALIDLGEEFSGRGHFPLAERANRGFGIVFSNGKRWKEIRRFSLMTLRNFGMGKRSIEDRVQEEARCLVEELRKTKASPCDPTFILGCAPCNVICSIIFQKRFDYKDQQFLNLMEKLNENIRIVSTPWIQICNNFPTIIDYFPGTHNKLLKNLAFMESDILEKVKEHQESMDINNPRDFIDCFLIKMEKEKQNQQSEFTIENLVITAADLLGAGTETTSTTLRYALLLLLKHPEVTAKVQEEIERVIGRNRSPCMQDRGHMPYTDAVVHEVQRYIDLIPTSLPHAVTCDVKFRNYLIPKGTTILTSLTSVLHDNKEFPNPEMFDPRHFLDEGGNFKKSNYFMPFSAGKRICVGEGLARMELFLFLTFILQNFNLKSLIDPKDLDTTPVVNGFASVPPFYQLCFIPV

Row | SMILES | decrease in secreted VEGF (sVEGF) [1] [log fold] | CD4 lymphocytes among TILs [2] | cytotoxic T-lymphocytes among TILs [2] | macrophages in myeloid cell infiltrate [2] | tumour growth inhibition ([3]; 360 h) [%] | growth of CT26 xenografts (tumour volume) ([3]; dose-dependent manner) | tolerability, bodyweight of tumour-bearing mice ([3]; mouse, in vivo) | proliferation [4] | VEGF secretion [5] | MMP-7 levels [6] | EC50 [7] [nM] | EC50 [8] [nM] | IC50 [9] [nM] | Hep CLhep (r) [10] | Hep CLhep (m) [11] | necrosis area at the tumour site ([12]; 100 mg/kg, compared to vehicle) | tumour area ([12]; 100 mg/kg, compared to vehicle) | tumour vessel formation (CD31/NG2 staining) ([12]; 15 days of treatment) | LogD7.4 [13]
1 | C[C@H](CC(=O)N1CCC(O)(Cn2cnc3c(-c4ccc(CN)cc4)n(C)nc3c2=O)CC1)c1ccccc1 [AD-04, (R)-3-(4-(Aminomethyl)phenyl)-6-((4-hydroxy-1-(3-phenylbutanoyl)piperidin-4-yl)methyl)-2-methyl-2H-pyrazolo[4,3-d]pyrimidin-7(6H)-one] | 3 | no significant change | significant increase | decrease | 53 | inhibited the growth | no significant bodyweight loss; also recorded: well tolerated | no effect | insensitive | decreases | – | – | – | – | – | – | – | – | –
2 | CC1(C(=O)N2CCC(O)(Cn3cnc4c(cc(Cl)n4-c4ccc5c(c4)CCO5)c3=O)CC2)CC1 [ADC-159, 6-Chloro-7-(2,3-dihydrobenzofuran-5-yl)-3-((4-hydroxy-1-(1-methylcyclopropane-1-carbonyl)piperidin-4-yl)methyl)-3,7-dihydro-4H-pyrrolo[2,3-d]pyrimidin-4-One] | – | – | – | – | – | – | – | – | – | – | 165 | 76 | > 20000 | 43 | 78 | significant increase | significant reduction | prevents tumour vessel formation | 2.5
